One test deals with human SK-MEL-28 melanoma. To be noted: cited from earlier work.
Test [1] deals with normal human keratinocyte cells (HaCaT). To be noted: cited from earlier work.
Test [2] deals with IGR39 human melanoma cells. Nature of the test: MTT cell viability assay, IGR39. Type of test: cell-based. How it is done:
(§1) The MTT assay was first described as a sensitive, quantitative, and reliable colorimetric assay to measure the viability, proliferation, and activation of cells. Cell viability was assessed at 24 and 72 h of treatment to evaluate cytotoxicity and the effect on cell proliferation of the decavanadate compound, respectively. The concentrations of the decavanadate compound have been determined by weighing the compound in its crystal form and then solubilizing it in distilled water.
(§2) All cell lines were seeded in 96-well plates (Nunc, Roskilde, Denmark) at a density of 10^4 cells per well and were incubated overnight, before treatment with different concentrations of the decavanadate compound. After 24 or 72 h of treatment, fresh media solution containing MTT at 0.5 mg/mL was added to cells and incubated for 3 h at 37°C. The formed formazan crystals were then dissolved in DMSO, and the absorbance was measured at 560 nm using a BioTek EON Microplate Spectrophotometer (Fisher Scientific). Cell viability was expressed as a percentage of the viable cell number of the untreated cells (control [CTR]).
(§3) The concentration of the decavanadate compound required for 50% growth inhibition (IC50 value) was estimated as resulting in a 50% decrease in absorbance, compared to the CTR.

The subject of test [3] is IGR37 human melanoma cells. Nature of the test: MTT cell viability assay, IGR37. It counts as cell-based. As to the method: as §1, §2, §3
In test [4] the test system is murine B16-F10 melanoma cells. To be noted: cited from earlier work.
For another test, the system named is COLO829 melanoma cell. Details: method as in PMID 32967177. To be noted: read-out: IC50, cell proliferation; cited from earlier work.
Test [5] has as its system skin papillomas caused by the injection of DMBA and croton oil. More on the design: method as in PMID 28010928. To be noted: 5 mg/kg; cited from earlier work.
The test system of a further test is A375 human melanoma cell. More on the design: method as in PMID 33132760. To be noted: A375, 24 h treatment, cited from earlier work.
In test [6] the test system is allograft model of B16-F10 cells in mice. More on the design: method as in PMID 29407869, PMID 6722991. To be noted: cited from earlier work.
A further test concerns IGR39 cells. To be noted: IGR39 proliferation; read-out: IC50, antiproliferative effect on IGR39; cited from earlier work.
The subject of test [7] is UACC-62 human melanoma cells. To be noted: UACC-62, at 5 μM; cited from earlier work.

Where two headings read alike, the source gives them in different places.

`N.N.[Cl][Pt][Cl]` [Cisplatin, cisplatin]: the IC50 in the test with human SK-MEL-28 melanoma (SKMEL28, 24 h) was greater than 12.5 µM; with human SK-MEL-28 melanoma (SKMEL28, 72 h), 9.5 µM; in test [1] (HaCaT, 24 h), 23.9 µM; in test [1] (HaCaT, 72 h) it was 23.9 µM; in [1] (keratinocyte cell line, 'was reported', no reference printed in the abstract) it was 23.9 µM; in [2] (IGR39, 24 h treatment), 83 µM. The IC50 in test [2] (IGR39, 72 h treatment) is 12.5 µM; in test [3] (IGR37, 24 h treatment), 26.5 µM; in [3] (IGR37, 72 h treatment), 3 µM; in test [4] (B16-F10, 24 h) it was 19.5 µM; in test [4] (B16-F10, 72 h) it was 10 µM. Further, the “IC50, cell viability” value in [2] (IGR39, 24 h treatment) stood at 25 µg/mL; in test [2] (IGR39, 72 h treatment), 3.8 µg/mL; in test [3] (IGR37, 24 h treatment), 8 µg/mL; in test [3] (IGR37, 72 h treatment), 0.9 µg/mL.

On to `CN(C)c1ccc(O)c2c1C[C@H]1C[C@H]3[C@H](N(C)C)C(O)=C(C(N)=O)C(=O)[C@@]3(O)C(O)=C1C2=O` [Minocycline], for which the IC50 in the test with COLO829 melanoma cell was 13.9 µM.

Regarding `C[C@H]1c2cccc(O)c2C(=O)C2=C(O)[C@]3(O)C(=O)C(C(N)=O)=C(O)[C@@H](N(C)C)[C@@H]3[C@@H](O)[C@@H]21` [doxycycline], in the test on COLO829 melanoma cell, the IC50 was 16.2 µM.

For `[O]=[V]([O-])([O-])[O-]` [orthovanadate], the “Incidence of skin papillomas” value in test [5] is recorded as “partially inhibited the incidence of skin papillomas”.

Consider `C[C@@H]1O[C@@H](OC[C@H]2O[C@@H](Oc3c(-c4ccc(O)c(O)c4)oc4cc(O)cc(O)c4c3=O)[C@H](O)[C@@H](O)[C@@H]2O)[C@H](O)[C@H](O)[C@H]1O` [rutoside], for which the “IC50, cell viability” value in the test on A375 human melanoma cell is “about 100 μg/mL”. In addition, the IC50 in the test with A375 human melanoma cell (read-out: IC50, cell viability) was roughly 163 µM.

For the molecule `[O]=[V]([O-])([O-])[O-]` [vanadate], the “Tumor size and incidence” value in [6] was “significantly decreased tumor size and their incidence”.

On to `O=S(=O)([O-])[O-].[O]=[V+2]` [vanadyl sulfate], for which the “Tumor size and incidence” value in test [6] is “significantly decreased tumor size and their incidence”.

Take (C4N2H7)6(C4N2H6)2V10O28: the IC50 with IGR39 cells is 7 µM.

In the case of (NH4)4Li2V10O2810H2O, the IC50 with IGR39 cells is 9.8 µM.

As to Mg(H2O)6(C4N2H7)4V10O28·4H2O, the IC50 in the test on IGR39 cells is 2 µM.

In the case of metformin–decavanadate [Metf-V10], the Inhibition of proliferation in test [7] is 80%.

Values taken from PMC11742080, “Decavanadate Compound Displays In Vitro and In Vivo Antitumor Effect on Melanoma Models” (Bioinorganic Chemistry and Applications, 2025).
